This experiment has as its system Brachionus plicatilis (rotifers). As to the kind of experiment: Cultivation assay of N. oceanica in the presence of rotifers (culture stability against predation). It counts as in vivo. The settings on record: rotifer concentrations between 10-50/mL. The text has this: FIGS. 3A-3B show culture stability in the presence of predation by rotifers. Provided are graphs showing (A) a culture including wild type Nannochloropsis oceanica (N. oceanica) exposed to increasing Brachionus plicatilis (rotifers) concentrations and (B) a transformed culture including N. oceanica strain 24N having a […]-322581 (Hypoxylon sp. CI-4A, sesquiterpene synthase) gene. Cultivation assays of N. oceanica in the presence of rotifers, which are common algae grazers and culture-crash inducing agents, indicate up to 50% increased survival of the sesquiterpene producing cultures over controls, indicating potential for algae crop-protection applications. Additional details follow. FIGS. 3A-3B show culture stability against predation.

On to `C=C(C)[C@@H]1CC=C2CCC[C@@H](C)[C@]2(C)C1` [aristolochene], for which the predation resistance result is “significantly increased predation resistance”.

The record behind these values is patent US11891640B1, “Crop protection in algae by exogenous terpene expression” (priority 2021, dated 2024).
